According to US20090074680A1, “STATHERIN PEPTIDE AND USE IN MEDICINE” (QUEEN MARY & WESTFIELD COLLEGE, priority 2005, published 2009):
Where no end group is shown, it is not given here. [ ]: non-standard residue; d: D form. pS = N[C@@H](COP(=O)(O)O)C(=O)O

Key:
[1] = Scanning microradiography (SMR) of demineralisation of HAp blocks coated for 24 h with peptide; conditions: for RDHAp of coated HAp compared to uncoated control: 24 h coating, StN21 0.75 to 3.76×10^−4 mol l^−1, lysozyme 0.11×10^−4 mol l^−1, pH 4.5; for rate of demineralisation of HAp (RDHAp): 0.1 mol l^−1 acetic acid pH 4.5, 3 weeks
Source text: HAp pellets are used in many studies instead of enamel blocks to prevent effect of enamel organic impurities and its natural surface on rate of demineralisation (Anderson et al., 2004). Statherin could not be isolated in a sufficiently pure form from saliva. Therefore N-terminal 21 residue fragment of statherin (StN21) was chemically synthesised using standard FastMoc synthesis (Fields et al., 1990). Also SXE motif, responsible for calcium binding in caseins, is present in this 21 amino-acid fragment of statherin. To exclude the possibility that StN21 act solely as a semi-permeable membrane, lysozyme was used as a negative control.
Hydroxyapatite (HAp) pellets of 20 wt % porosity (Plasma Biotal Ltd, UK) were sliced into 3×3 mm blocks with 2 mm thickness using Microslice 2 cutter (Malvern Instruments Ltd.). Entire surface of the block, except one side was coated with acid resistant nail varnish. Ten HAp blocks were put into a solution saturated with respect to HAp for 24 hours to equilibrate. After equilibration, four HAp blocks were exposed for 24 h to 0.5 ml of four different concentrations of StN21 peptide dissolved in modified buffer (100 mmol^−1 NaCl, 40 mmol^−1 KCl, 4.3 mmol^−1 Na2HPO4, and 1.4 mmol^−1 KH2PO4, pH 7.4). The concentrations of StN21 peptide were 0.75, 1.13, 1.88 and 3.76×10^−4 mol l^−1. As a negative control one HAp pellet was put into 0.5 ml of solution containing lysozyme at concentration of 0.11×10^−4 mol l^−1.
Scanning microradiography (SMR) is a technique for observing very subtle changes in mineral mass during re and demineralisation of enamel and HAp. It allows observation period of up to 1000 h without disruptions to the specimen. Also, conditions can be modified and the effect of applied modifications on the samples can be monitored. SMR (Anderson et al., 2004) is an X-ray photon counting technique where the intensity of 15 μm X ray beam is attenuated by passing through the specimen and the transmitted photons are counted by an X-ray detector.
HAp blocks were placed in the wells of SMR cells (FIG. 2). Each SMR cell contained one HAp block coated with protein and one as a control. As an additional control, in one SMR cell two uncoated HAp blocks were placed in one SMR cell. The reservoir of the SMR cell is approximately 1.2 ml and solution is circulating past the HAp blocks at 0.4 ml min^−1.
Demineralising solution was 0.1 mol l^−1 acetic acid, buffered to pH 4.5 with 1 mol l^−1 NaOH; 1 mmol l^−1 calcium and 0.6 mmol l^−1 phosphate ions.
SMR was used to monitor changes in mineral mass at 12 positions 10 μm apart, along 2 lines in each well. Scanning time was 30 s per position. Total period of observation was 3 weeks. The rate of mineral change at each position was calculated by linear least squares fitting.

[2] = SMR of demineralisation of HAp blocks after 3 min immersion(s) in STN21 solution; conditions: STN21 1.88×10^−4 mol l^−1, pH 4.5
Method: STN21 was synthesised using Fmoc solid state synthesis. Hydroxyapatite (HAp) pellets were cut into 5×5×2 mm blocks and covered with acid-resistant varnish leaving one surface exposed and immersed in STN21 solution (1.88×10^−4 mol l^−1) for 3 min. The pellets were then located in scanning microradiography (SMR) cells. Demineralising solution (0.1 mol l^−1 acetic acid, pH 4.5) was circulated (0.4 ml min^−1) for 3 weeks.
Five samples were exposed to further twice daily 3 min. immersions in STN21 solution. Changes in mineral mass were measured using SMR for 28 days.

[3] = lysozyme bound to HAp surface; cited from earlier work

## DpSpSEEKFLRRIGRFGYGYGPY (D[pS][pS]EEKFLRRIGRFGYGYGPY; UniProt P02808 20-40, looked up, fragment) [StN21, N-terminal fragment of statherin which consists of 21 amino acids; pS = phosphorylated serine]
[1]; 9.4×10^−6 molar, equivalent to 25 mg/litre
  effect on RDHAp at lowest concentration: effective
[1]
  RDHAp of coated HAp compared to uncoated control: significantly lower
[1]; StN21 coating concentration 0.75×10^−4 mol l^−1, 24 h exposure
  rate of demineralisation of HAp (RDHAp): 2.2 ×10^−5 g cm^−2 h^−1
[1]; StN21 coating concentration 1.13×10^−4 mol l^−1, 24 h exposure
  rate of demineralisation of HAp (RDHAp): 1.9 ×10^−5 g cm^−2 h^−1
[1]; StN21 coating concentration 1.88×10^−4 mol l^−1, 24 h exposure
  rate of demineralisation of HAp (RDHAp): 1.7 ×10^−5 g cm^−2 h^−1
[1]; StN21 coating concentration 3.76×10^−4 mol l^−1, 24 h exposure
  rate of demineralisation of HAp (RDHAp): 1.8 ×10^−5 g cm^−2 h^−1
[2]; one 3 min period only
  decrease in rate of mineral loss compared to a non-coated control: 17%
[2]; repeated twice daily 3 min immersions
  decrease in demineralisation rate: 45%

## lysozyme [reference compound]
[1]
  RDHAp of coated HAp compared to uncoated control: very similar results to uncoated (control) blocks
[3]
  influence on rate of demineralisation of HAp: does not influence rate of demineralisation of HAp
